Assay results as given in US11638709B2, “Rucaparib, Talazoparib, Veliparib, Olaparib and AZD 2461 for treating impaired skin wound healing” (AKRIBES BIOMEDICAL GMBH, priority 2017, dated 2023).
Entries after “also recorded” stand apart in the source; their conditions may differ.

Assays:
[1] = tested on: primary human dermal fibroblasts (HDF); assay: Primary human dermal fibroblast (HDF) proliferation assay (2D) with or without wound exudate; type: cell-based; settings: for fibroblast proliferation in the absence of WE: FIG. 11, 2D fibroblast culture without WE (control); for HDF proliferation in the presence of WE #78, combined with PDGF / HDF proliferation in the presence of WE #78 / HDF proliferation in the absence of WE: FIG. 14; for HDF proliferation in the presence of WE #78, combined with PDGF: plus PDGF 20 ng/ml; for HDF proliferation in the presence of WE #78 / HDF proliferation in the absence of WE: veliparib 10 μM, talazoparib 1 μM, PDGF 20 ng/ml; for HDF proliferation in the absence of WE / effect on PDGF-induced induction of proliferation in the absence of WE: no WE; for HDF proliferation with wound exudate #78, plus PDGF / HDF proliferation with wound exudate #78: FIG. 15; for HDF proliferation with wound exudate #78, plus PDGF: compound + PDGF 20 ng/ml in medium + WE #78; for HDF proliferation with wound exudate #78: compound in medium + WE #78; for wound exudate-induced inhibition of fibroblast proliferation: FIG. 20, with wound exudate; for effect on PDGF-induced induction of proliferation in the absence of WE: with PDGF
Procedure: (§1) Primary human dermal fibroblasts (HDF) were purchased from CELLnTEC, Bern. They were routinely grown in Dulbecco's modified Eagle's medium (DMEM) containing 10% FCS, 2 mM glutamine, and 100 U/ml penicillin/100 μg/ml streptomycin. Media, antibiotics, and glutamine were bought from Lonza. The cells were used at passage 5-15. Cells were trypsinized and seeded at 5000 cells/well in 200 μl into the inner wells of 96-well plates. The outer wells were loaded with sterile water. The cells were allowed to adhere overnight and then incubated for 72 hours at 37° C. under the following conditions: graded compound concentrations or 20 ng/ml PDGF-BB (Tonbo Biosciences) in the absence or presence of different dilutions of sterile-filtered WE in medium. For control samples, 200 μl medium was added instead of specific stimuli. Alternatively, the cells were seeded into 384-well plates at 2500 cells/well directly together with test compounds or growth factors and WE or medium in a total volume of […].
At the end of the 72-hour incubation period, supernatants were removed for the determination of IL-1ß, and the cells were fixed with 4% paraformaldehyde (Morphisto) for 15 minutes at room temperature and washed 3 times with PBS. A control plate was fixed after the overnight adherence of the cells (day 1) to determine the starting cell number.
Total cellular protein was determined as a measure of cell number by staining the fixed cells with sulforhodamine B (SRB, Sigma). A 0.4% SRB solution in 1% acetic acid was added to the wells for 30 minutes. The wells were then washed with 1% acetic acid until the wash solution remained colorless. […] The average absorbance of the sample representing the day 1 starting cell number (for 96-well plates) was subtracted from the absorbance values of the WE-treated cells.
All experiments were carried out in triplicate for each sample and concentration, and means±standard deviation (SD) were used for the evaluation of the experiment. Results are expressed as percentage of control values for unstimulated cells.
Low molecular weight compounds (see list in Table 1) were dissolved in DMSO (Bioreagent for cell culture, Sigma) at 10 mM or 100 mM and diluted at least 1:1000 in medium for cellular assays (final DMSO concentration ≤0.1%).
Cells were incubated with compounds for 72 hours in proliferation assays and up to 8 days for FDM assay (refreshed after 4 days). When compounds were tested for their effect on WE stimulation, the incubation of cells with compounds was started and ended simultaneously with WE-incubation.

[2] = tested on: alpha-smooth muscle actin (α-SMA) in human dermal fibroblasts; assay: Immunolocalization of alpha-smooth muscle actin in 2D HDF culture; type: cell-based; settings: FIG. 16; wound exudates #91 and #55; talazoparib 0.1 μM
Procedure: as §1
After fixation with paraformaldehyde, the cells were incubated for 1 hour at room temperature with a monoclonal mouse-anti-human antibody against alpha-smooth muscle actin (α-SMA) from e-Bioscience, washed 3 times with PBS and developed with an Alexa Fluor-labelled donkey-anti-mouse IgG (Molecular Probes). […]

SMILES	WE-induced inhibition of fibroblast proliferation (2D HDF proliferation) ([1]; FIG. 1, wound exudate #78 (diabetic patient))	human dermal fibroblast proliferation (2D), effect of veliparib ([1]; FIG. 2, WE from patients #49, #43, #78, #27)	fibroblast 2D culture, reproducibility of effect ([1]; FIG. 3, WE samples #77 and #78 of one patient (day 1 and day 8), patient on prednisolone)	2D fibroblast culture (HDF proliferation), effect of PARP inhibitors ([1]; FIG. 8, WE from patient #78)	2D fibroblast culture (HDF proliferation), effect of PARP inhibitors ([1]; FIG. 9, WE from patient #43)	2D fibroblast culture (HDF proliferation), effect of PARP inhibitors ([1]; FIG. 10, WE from patient #78)	fibroblast proliferation in the absence of WE [1]	2D fibroblast culture, PARP inhibitor effect ± dexamethasone ± Vit. C ([1]; FIG. 12, WE from patient #78)	2D fibroblast culture, PARP inhibitor effect ± dexamethasone ± Vit. C ([1]; FIG. 13, WE from patient #43)	HDF proliferation in the presence of WE #78, combined with PDGF [1]	HDF proliferation in the presence of WE #78 [1]	HDF proliferation in the absence of WE [1]	HDF proliferation with wound exudate #78, plus PDGF [1]	HDF proliferation with wound exudate #78 [1]	wound exudate-induced inhibition of fibroblast proliferation [1]	effect on PDGF-induced induction of proliferation in the absence of WE [1]	expression of α-SMA [2]
C[C@]1(c2nc3c(C(N)=O)cccc3[nH]2)CCCN1 [Veliparib, 2-((2R)-2-methylpyrrolidin-2-yl)-1H-benzimidazole-4-carboxamide]	completely reversed inhibition of wound exudate (WE)-induced fibroblast proliferation	most prominent in the two patients with diabetes	reproducible in different samples of the same patient	strong and consistent positive effect	strong and consistent positive effect	strong and consistent positive effect	either no effect on fibroblast proliferation in the absence of wound exudate, or only a marginal effect	strongly beneficial effects	strongly beneficial effects	additively or synergistically enhanced by PDGF	induce proliferation	no or even an inhibitory effect	even further enhanced by the addition of PDGF	dose-dependent increase of HDF proliferation	enhanced cell proliferation	either had no effect on PDGF-induced induction of proliferation or showed inhibition of the PDGF effect	–
Cn1ncnc1[C@H]1c2n[nH]c(=O)c3cc(F)cc(c23)N[C@@H]1c1ccc(F)cc1 [Talazoparib]	–	–	–	strong and consistent positive effect	strong and consistent positive effect	strong and consistent positive effect	weak inhibitory activity; also recorded: either no effect on fibroblast proliferation in the absence of wound exudate, or only a marginal effect	strongly beneficial effects	strongly beneficial effects	additively or synergistically enhanced by PDGF	induce proliferation	no or even an inhibitory effect	even further enhanced by the addition of PDGF	dose-dependent increase of HDF proliferation	enhanced cell proliferation	either had no effect on PDGF-induced induction of proliferation or showed inhibition of the PDGF effect	able to induce expression of α-SMA
